Data as given in patent US20230099822A1, “MR1 LIGANDS AND PHARMACEUTICAL COMPOSITIONS FOR IMMUNOMODULATION” (UNIVERSITÄT BASEL, priority 2020, published 2023).

Legend:
MR1T cell clones [1] = assay: MR1T cell activation assay with THP-1 cells incubated with compounds (cytokine ELISA); assay type: cell-based, human; details: for number of MR1T clones significantly stimulated: fourteen randomly selected MR1T clones, THP-1 cells, IFN-γ (FIG. 12B); for activation of MR1T clone MCA3C3 (IFN-γ): THP-1 cells pre-incubated with 250 μM of molecule (FIG. 8G, right); for activation of MR1T clone DGB129 (IFN-γ): THP-1 cells pre-incubated with 250 μM of molecule (FIG. 8G, middle)
Experimental: MR1T cells (5×10^4/well unless otherwise indicated) were co-cultured with the indicated APCs (10^5 cells per well unless otherwise indicated) for 18 h in 120 μL volume in triplicate.
When nucleobases, nucleosides or nucleotides (all 250 μM) and synthetic compounds M3ADE, OPdA, M1G or OPdC were used to stimulate T cells, the THP-1 cells (10^5/well) were cultured 2 h with the indicated molecules or medium only, prior to T-cell addition. When a single concentration of synthetic antigens was used, 100 μM OPdA, 100 μM OPdC and 13 μM M1G were used for all clones, while 100 μM M3ADE was used for all clones except DGB129, AC1A4, AC1B76 and AVA46 for which 1 μM was used.

[2] = molecular target: T1, MR1 surface expression on THP-1 MR1 cells (Homo sapiens, UniProt Q95460); assay: Cell surface MR1 modulation on APCs (flow cytometry, anti-MR1 mAb 26.5); assay type: cell-based; details: for cell surface MR1 upregulation on APCs (in words): pulsed APC / THP1-MR1 cells
T1 construct: expressed in transfected cells; host or cells: THP-1 (ATCC TIB-202) stably expressing MR1 (THP1-MR1)
T1 sequence (Q95460 23-341): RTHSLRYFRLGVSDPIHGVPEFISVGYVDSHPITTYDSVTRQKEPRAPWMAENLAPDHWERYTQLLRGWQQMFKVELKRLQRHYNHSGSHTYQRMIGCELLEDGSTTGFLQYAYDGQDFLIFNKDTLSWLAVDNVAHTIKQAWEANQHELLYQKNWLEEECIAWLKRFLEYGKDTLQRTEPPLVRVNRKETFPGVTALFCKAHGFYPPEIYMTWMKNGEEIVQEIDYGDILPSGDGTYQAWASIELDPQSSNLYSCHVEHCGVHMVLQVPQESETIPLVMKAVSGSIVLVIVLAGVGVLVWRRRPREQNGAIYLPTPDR
T1 sequence (P61769 21-119 partner): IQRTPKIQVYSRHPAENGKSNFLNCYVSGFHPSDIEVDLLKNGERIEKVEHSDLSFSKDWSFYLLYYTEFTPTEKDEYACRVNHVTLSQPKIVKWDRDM
Experimental: […] […] For each condition, net MFI was calculated subtracting isotype MFI from anti-MR1 MFI and fold change of cells treated with synthetic molecules over cells treated with vehicle was calculated.

MR1T cell clones [3] = assay: Competition assay for stimulation of MR1T cell clones; assay type: cell-based, human; details: APCs with compound 2 h (3 doses), then antigen at optimal concentration, cytokine ELISA
Experimental: As positive control for competition with antigens, Ac-6-FP was used (100 μM). Supernatants were collected after 24 h for cytokine analysis measured by ELISA.

[4] = THP-1 MR1 cells, 3 h at 37° C., 3 doses each

O=C/C=C/Nc1ncnc2c1ncn2[C@H]1C[C@H](O)[C@@H](CO)O1 (stereo in doubt) [Cmpd 12, N6-(3-oxo-1-propenyl)-2′-deoxyadenosine]
Reactive T cells isolated (MR1T cell clones [1]): YES
MRI upregulation [2, 4]: YES

O=c1[nH]cc([C@@H]2O[C@H](CO)C(O)C2O)c(=O)[nH]1 (stereo in doubt) [Cmpd 36, 5-(3,4-dihydroxy-5-(hydroxymethyl)tetrahydrofuran-2-yl)pyrimidine-2,4(1H,3H)-dione]
Competition (MR1T cell clones [3]): YES
MRI upregulation [2, 4]: YES

O=C/C=C/Nc1ccn([C@H]2C[C@H](O)[C@@H](CO)O2)c(=O)n1 (stereo in doubt) [Cmpd 38, N4-(3-oxo-1-propenyl)-2′-deoxycytidine]
activation of MR1T clone TC5A87 by adduct (MR1T cell clones [1]): activated
stimulation of MR1T clone QY1A16 by adduct (MR1T cell clones [1]): stimulated
number of MR1T clones significantly stimulated (MR1T cell clones [1]): three

Nc1ncnc2c1ncn2[C@@H]1O[C@H](COP(=O)(O)OP(=O)(O)O)[C@@H](O)[C@H]1O [ADP, reference compound]
activation of MR1T clone MCA3C3 (IFN-γ) (MR1T cell clones [1]): activated

Cn1cnc2c(ncn2[C@@H]2O[C@H](CO)[C@@H](O)[C@H]2O)c1=N [Cmpd 1, 1-methyladenosine]
Competition (MR1T cell clones [3]): YES
MRI upregulation [2, 4]: YES

Cc1nc(N)c2ncn([C@@H]3O[C@H](CO)[C@@H](O)[C@H]3O)c2n1 [Cmpd 2, 2-methyladenosine]
Competition (MR1T cell clones [3]): YES
MRI upregulation [2, 4]: YES
cell surface MR1 upregulation on APCs (in words) [2]: upregulation

CO[C@@H]1[C@H](O)[C@@H](CO)O[C@H]1n1cnc2c(N)ncnc21 [Cmpd 3, 2′-O-methyladenosine]
Reactive T cells isolated (MR1T cell clones [1]): YES
MRI upregulation [2, 4]: YES

CN(C)c1ncnc2c1ncn2[C@@H]1O[C@H](CO)[C@@H](O)[C@H]1O [Cmpd 4, N6,N6-dimethyladenosine]
Reactive T cells isolated (MR1T cell clones [1]): YES
compound-specific MR1T cell activation (IFN-γ) (MR1T cell clones [1]; clones DGB129, MCA2E7 and TC5A87, THP-1 cells, overnight (FIG. 3)): activation
MRI upregulation [2, 4]: YES

C/C(=C\CNc1ncnc2c1ncn2[C@@H]1O[C@H](CO)C(O)C1O)CO (stereo partly drawn) [Cmpd 7, N6-(cis-hydroxyisopent-2-enyl) adenosine]
Competition (MR1T cell clones [3]): YES

CSc1nc(NC/C=C(\C)CO)c2ncn([C@@H]3O[C@H](CO)C(O)C3O)c2n1 (stereo partly drawn) [Cmpd 8, 2-methylthio-N6-(cis-hydroxyisopent-2-enyl) adenosine]
Reactive T cells isolated (MR1T cell clones [1]): YES
MRI upregulation [2, 4]: YES

CSc1nc(NCC=C(C)C)c2ncn([C@@H]3O[C@H](CO)[C@@H](O)[C@H]3O)c2n1 [Cmpd 9, 2-methylthio-N6-isopent-2-enyladenosine]
Competition (MR1T cell clones [3]): YES

O=C/C=C/Nc1ncnc2c1ncn2[C@H]1C[C@H](O)[C@@H](CO)O1 [Cmpd 12, N6-(3-oxo-1-propenyl)-2′-deoxyadenosine]
activation of MR1T clone AC1A4 by adduct (MR1T cell clones [1]): activated
activation of MR1T clone TC5A87 by adduct (MR1T cell clones [1]): activated
stimulation of MR1T clone QY1A16 by adduct (MR1T cell clones [1]): stimulated
number of MR1T clones significantly stimulated (MR1T cell clones [1]): eight

CCCCCC(=O)Cc1cnc2c3ncn([C@H]4C[C@H](O)[C@@H](CO)O4)c3ncn12 [Cmpd 14, 1-(3-((2R,4S,5R)-4-hydroxy-5-(hydroxymethyl)tetrahydrofuran-2-yl)-3H-imidazo[2,1-i]purin-7-yl)heptan-2-one]
MRI upregulation [2, 4]: YES

Cn1c(N)nc2c(ncn2[C@@H]2O[C@H](CO)[C@@H](O)[C@H]2O)c1=O [Cmpd 15, 1-methylguanosine]
Reactive T cells isolated (MR1T cell clones [1]): YES
Competition (MR1T cell clones [3]): YES

CNc1nc2c(ncn2[C@@H]2O[C@H](CO)[C@@H](O)[C@H]2O)c(=O)[nH]1 [Cmpd 16, N2-methylguanosine]
MRI upregulation [2, 4]: YES

C[n+]1cn([C@@H]2O[C@H](CO)[C@@H](O)[C@H]2O)c2nc(N)[nH]c(=O)c21 [Cmpd 17, 7-methylguanosine]
Reactive T cells isolated (MR1T cell clones [1]): YES
Competition (MR1T cell clones [3]): YES

CO[C@@H]1[C@H](O)[C@@H](CO)O[C@H]1n1cnc2c(=O)[nH]c(N)nc21 [Cmpd 18, 2′-O-methylguanosine]
Competition (MR1T cell clones [3]): YES
MRI upregulation [2, 4]: YES

O=c1c2nc[nH]c2nc2ncccn12 [Cmpd 24, pyrimido(1,2-a)purin-10(1H)-one]
Reactive T cells isolated (MR1T cell clones [1]): YES
activation of MR1T clone AC1A4 by adduct (MR1T cell clones [1]): activated
response to THP-1 cells when adduct added (MR1T cell clones [1]; M1G or M3ADE added to clones QY1A16 and QY1C3, respectively): significant decreased response
number of MR1T clones significantly stimulated (MR1T cell clones [1]): three
MRI upregulation [2, 4]: YES

CCCCCC(=O)Cc1c[nH]c2nc3c(ncn3[C@H]3C[C@H](O)[C@@H](CO)O3)c(=O)n12 [Cmpd 25, 3-((2R,5R)-4-hydroxy-5-(hydroxymethyl)tetrahydrofuran-2-yl)-7-(2-oxoheptyl)-3H-imidazo[1,2-a]purin-9(5H)-one]
MRI upregulation [2, 4]: YES

CO[C@@H]1[C@H](O)[C@@H](CO)O[C@H]1n1ccc(N)nc1=O [Cmpd 29, 2′-O-methylcytidine]
Competition (MR1T cell clones [3]): YES
MRI upregulation [2, 4]: YES

Cc1cn([C@@H]2O[C@H](CO)[C@@H](O)[C@H]2O)c(=O)[nH]c1=O [Cmpd 31, 5-methyluridine]
Competition (MR1T cell clones [3]): YES
MRI upregulation [2, 4]: YES

CO[C@@H]1[C@H](O)[C@@H](CO)O[C@H]1n1ccc(=O)n(C)c1=O [Cmpd 32, 3,2′-O-dimethyluridine]
Competition (MR1T cell clones [3]): YES
MRI upregulation [2, 4]: YES

Nc1nc2c(c(CN[C@H]3C=C[C@H](O)[C@@H]3O)cn2[C@@H]2O[C@H](CO)[C@@H](O)[C@H]2O)c(=O)[nH]1 [Cmpd 33, Queuosine]
Competition (MR1T cell clones [3]): YES
MRI upregulation [2, 4]: YES

COC(=O)N[C@@H](CCc1c(C)nc2n(C)c3c(ncn3[C@@H]3O[C@H](CO)[C@@H](O)[C@H]3O)c(=O)n12)C(=O)OC [Cmpd 34, Wybutosine]
Competition (MR1T cell clones [3]): YES
MRI upregulation [2, 4]: YES

O=C/C=C/Nc1ccn([C@H]2C[C@H](O)[C@@H](CO)O2)c(=O)n1 [Cmpd 38, N4-(3-oxo-1-propenyl)-2′-deoxycytidine]
MRI upregulation [2, 4]: YES

CSc1ncnc2c1ncn2[C@@H]1O[C@H](CO)[C@@H](O)[C@H]1O [Cmpd 40, (2R,3S,4R,5R)-2-(hydroxymethyl)-5-(6-(methylthio)-9H-purin-9-yl)tetrahydrofuran-3,4-diol]
Reactive T cells isolated (MR1T cell clones [1]): YES
MRI upregulation [2, 4]: YES

CNc1ncnc2c1ncn2[C@@H]1O[C@H](CO)[C@@H](O)[C@H]1O [Cmpd 42, N6-methyladenosine]
Competition (MR1T cell clones [3]): YES
MRI upregulation [2, 4]: YES

Cn1c(N)nc2[nH]cnc2c1=O [Cmpd 47, 1-Methylguanine]
MRI downmodulation [2, 4]: YES

CNc1nc2c(ncn2[C@H]2C[C@H](O)[C@@H](CO)O2)c(=O)[nH]1 [Cmpd 48, N2-Methyl-2′-deoxyguanosine]
MRI upregulation [2, 4]: YES

CSC[C@H]1O[C@@H](n2cnc3c(N)ncnc32)[C@H](O)[C@@H]1O [Cmpd 52, 5′-Deoxy-5′-(methylthio)adenosine]
Competition (MR1T cell clones [3]): YES

CNc1ncnc2c1ncn2[C@H]1C[C@H](O)[C@@H](CO)O1 [Cmpd 53, N6-Methyl-2′-deoxyadenosine]
Reactive T cells isolated (MR1T cell clones [1]): YES

OCCNc1ncnc2c1ncn2[C@H]1C[C@H](O)[C@@H](CO)O1 [Cmpd 54, N6-(2-Hydroxyethyl)-2′-deoxyadenosine]
Reactive T cells isolated (MR1T cell clones [1]): YES

CC(=O)C=O [MG, methylglyoxal, reference compound]
MR1T-cell stimulation by GLO1-deficient compared to wild-type THP-1 cells (MR1T cell clones [1]; clone DGB129, Methylglyoxal (FIG. 9I)): significantly increased
MR1T-cell stimulation with GLO1-overexpressing THP-1 cells (MR1T cell clones [1]; clone DGB129, Methylglyoxal (FIG. 9J)): failed to induce

CN(C)c1ncnc2c1ncn2[C@@H]1O[C@H](CO)[C@@H](O)[C@H]1O [N6,N6-dimethyladenosine]
cell surface MR1 upregulation on APCs (in words) [2]: upregulation

Nc1ncnc2nc[nH]c12 [adenine, reference compound]
activation of MR1T clone DGB129 (IFN-γ) (MR1T cell clones [1]): reacted

Nc1ncnc2c1ncn2[C@@H]1O[C@H](CO)[C@@H](O)[C@H]1O [adenosine, reference compound]
activation of MR1T clone DGB129 (IFN-γ) (MR1T cell clones [1]): reacted

Nc1ncnc2c1ncn2[C@H]1C[C@H](O)[C@@H](CO)O1 [deoxyadenosine, reference compound]
activation of MR1T clone DGB129 (IFN-γ) (MR1T cell clones [1]): reacted
MR1T reactivity using GLO1-deficient THP-1 cells as APCs (MR1T cell clones [1]; clone DGB129, deoxyadenosine (FIG. 9K)): increased
MR1T reactivity using GLO1-overexpressing THP-1 cells (MR1T cell clones [1]; clone DGB129, deoxyadenosine (FIG. 9L)): decreased

Nc1nc2c(ncn2[C@H]2C[C@H](O)[C@@H](CO)O2)c(=O)[nH]1 [deoxyguanosine, reference compound]
activation of MR1T clone MCA3C3 (IFN-γ) (MR1T cell clones [1]): activated

Nc1nc2nc[nH]c2c(=O)[nH]1 [guanine, reference compound]
activation of MR1T clone MCA3C3 (IFN-γ) (MR1T cell clones [1]): activated

Nc1nc2c(ncn2[C@@H]2O[C@H](CO)[C@@H](O)[C@H]2O)c(=O)[nH]1 [guanosine, reference compound]
activation of MR1T clone MCA3C3 (IFN-γ) (MR1T cell clones [1]): activated

OC[C@H]1O[C@@H](n2cnc3c(O)ncnc32)[C@H](O)[C@@H]1O [inosine, reference compound]
activation of MR1T clone DGB129 (IFN-γ) (MR1T cell clones [1]): reacted

O=c1[nH]c(=O)c2ncn([C@@H]3O[C@H](CO)[C@@H](O)[C@H]3O)c2[nH]1 [xanthosine, reference compound]
activation of MR1T clone MCA3C3 (IFN-γ) (MR1T cell clones [1]): activated
